Measured values reported in patent publication US20030228566A1, “Method of and apparatus for screening for drug candidates” (BioTechPlex Corporation, priority 2002, published 2003).

Test system: normal human bronchial epithelial cells (NHBE)
Assay: Cumulative dose kinetic responses of intracellular Ca++, Cl- and cell membrane potential (simultaneous three-fluorophore photon counting: Fluo-3, di-MEQ, RH421)
Assay type: cell-based
Conditions: for intracellular Ca++ response / intracellular Cl- response / membrane potential response: cumulative dosing
Procedure: Normal human bronchial/tracheal epithelial cells (NHBE, Clonetics) were cultured in T-25 cm^2 flasks at 37° C., 5% CO2 using Bronchial/Tracheal Epithelial Cell Growth Medium containing Retinoic Acid (BEGM, w/RA, Clonetics). When the NHBE cells in the T-25 flasks reached 60%-80% confluency, the cells were passaged using a seeding density of 3500 cells/cm^2. A portion of the cells was passaged in T-25 flasks again while the remaining cells were seeded on UV-exposed Vitrogen (pH balanced 1:1 BEGM to Vitrogen) coated 4-well cover glass chambers (LabTek II). NHBE cells normally attached to the collagen-coated cover glass chamber within 24 hrs. Prior to these cells reaching 60% confluency, they were used for all the experiments described below. Cells used in all the experiments were either 2nd or 3rd passage cells maintained in Bronchial/Tracheal Epithelial Cell Growth Medium with Retinoic Acid (BEGM, w/RA, Clonetics).
The following procedures for loading the cells with fluorophore were employed. Balanced Hank's (BH) solution without phenol red was used as the medium for all the fluorophore preparations and cell washings unless stated otherwise. Fluo-3 (a Ca^++ indicator), di-MEQ (a Cl^− indicator) and RH421 (a cell membrane potential indicator) were loaded into cells sequentially at room temperature. Cells were first incubated with 8 μM Fluo-3 solution for 60 minutes, followed by incubating with 50 μM di-MEQ for 5 minutes and then finally with 10 μM RH421 for 5 minutes. Extraneous dyes were washed with BH solution between each fluorophore loading procedure. The cells were allowed to stabilize in BEGM for a minimum of 15 minutes at room temperature prior to the beginning of each experiment.
Experiments were performed at room temperature. All tested agents were prepared in Balanced Hank's Solution. One of the wells of the cover glass chamber was placed on the stage of the inverted microscope and the cells loaded with the fluorophores were visually focused with the violet, green and orange emitted light from the cells approximately in the same focal plane. At a sampling frequency of 100 Hz, cells with the following photon counts were chosen for the study: 20 to 50 counts per channel (cpc) for Ca^++ fluorescence, 70 to 200 cpc for Cl^− fluorescence, and 20 to 50 cpc for cell membrane potential fluorescence. After establishing a 2 minute baseline, increasing doses of the agent of interest were added topically to the wells 2 minutes apart. At the end of each experiment, a toxic dose of the agent of interest was added to the sample to either shrink or swell the cells beyond their normal cell volume regulatory range. This caused the fluorescence signals of each of these fluorophores to reach either maximum or minimum values. […] Background fluorescence was recorded using a cell free area of the same well. If the signal to background ratio was not higher than a factor of 10, the experiments were also discarded.

[1] = 25 μM to 500 μM cumulative dosing, general statement
[2] = Glibenclamide concentrations below 500 μM

## O=c1ccn([C@@H]2O[C@H](COP(=O)(O)OP(=O)(O)OP(=O)(O)O)[C@@H](O)[C@H]2O)c(=O)[nH]1 [UTP, uridine triphosphate]
Concentration 0.1 mM
  intracellular Ca++ response: rapid increase
  intracellular Cl- response: essentially no changes
  membrane potential response: essentially no changes
Concentration 1 mM
  intracellular Ca++ response: rapid increase
  intracellular Cl- response: essentially no changes
  membrane potential response: essentially no changes

## COc1ccc(Cl)cc1C(=O)NCCc1ccc(S(=O)(=O)NC(=O)NC2CCCCC2)cc1 [Glibenclamide]
[1]
  [Cl-]i (MEQ fluorescence inversely proportional to [Cl-]i), overall effect: increased
  cell membrane polarization, overall effect: hyperpolarized
[2]
  intracellular Ca++ response: little affected
  intracellular Cl- response: declines as Glibenclamide concentration increases
  membrane potential response: little affected
Concentration 500 μM
  intracellular Ca++ response: rapid increase
  intracellular Cl- response: simultaneous drop
  membrane potential response: simultaneous increase
